This note sets out measurements from patent publication US20260078103A1, “ISOQUINOLONES AS PI3K INHIBITORS” (OnKure, Inc., priority 2022, published 2026).

SMILES strings stand for the structures.

One assay deals with phosphorylation of AKT (pAKT) in T47D cells expressing mutant PI3Ka (H1047R). Kind of assay: In vitro cell pAKT (Ser473) HTRF, T47D cells. The class given is cell-based. The conditions noted are these: Homo sapiens, T47D, 6 h, cellular pAKT, T47D cells, mutant PI3Ka (H1047R), 6 hours; read-out: Avg T-47D IC50. The gist of the method: (§1)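 T47D cells (RPMI, 10% FBS, 0.2 units/mL insulin) or SKBR3 cells (McCoy's 5a, 10% FBS) were seeded onto 10-point compound dilutions and incubated 6 h at 37 °C. After lysis, pAKT was detected overnight by HTRF (Eu cryptate/d2). IC50 was fitted from % inhibition relative to 0.1% DMSO and 10 uM alpelisib controls.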
(In general: Time-resolved FRET reads energy transfer from a long-lived donor to a nearby acceptor.)
As a reminder, the IC50 is the midpoint of a concentration-inhibition curve. As for `Cc1cc(C(C)Nc2ccccc2C(=O)O)c2cc(N3CCN4C(=O)CCC4C3)n(C)c(=O)c2c1` (single isomer, unassigned) [Example 134], the IC50 is greater than 15 µM.
Consider `Cc1cc(C(C)Nc2ccccc2C(=O)O)c2cc(N3CCN4CCC[C@@H]4C3)n(C)c(=O)c2c1` (single isomer, unassigned) [Example 137], for which the half-inhibitory concentration (IC50) lay within 0.001 to 0.5 µM.
In the case of `Cc1cc(C(C)Nc2ccccc2C(=O)O)c2cc(N3CCN(c4ccc(C)nc4)CC3)n(C)c(=O)c2c1` (single isomer, unassigned) [Example 145], the IC50 fell in the range of 0.001 to 0.5 µM.

Staying with this assay, now noted: cellular pAKT, T47D cells, mutant PI3Ka (H1047R), 6 hours; read-out: Avg T-47D IC50.
`Cc1cc(C(C)Nc2ccccc2C(=O)O)c2cc(N3CCC4(CCN(CC(F)(F)F)CC4)CC3)n(C)c(=O)c2c1` (single isomer, unassigned) [Example 111]: the IC50 lay in the range of 0.001 to 0.5 µM.
Still for that read-out and setting: the value for `COCCC(=O)N1CCN(c2cc3c(C(C)Nc4ccccc4C(=O)O)cc(C)cc3c(=O)n2C)CC1` (single isomer, unassigned) [Example 112] was greater than 15 µM.
For `COCCC(=O)N1CCN(c2cc3c(C(C)Nc4ccccc4C(=O)O)cc(C)cc3c(=O)n2C)CC1` (single isomer, unassigned) [Example 113], the IC50 lay within 0.5 to 2 µM.
`Cc1cc(C(C)Nc2ccccc2C(=O)O)c2cc(N3C[C@@H]4CCCC[C@H]4C3)n(C)c(=O)c2c1` (single isomer, unassigned) [Example 114]: the IC50 is greater than 15 µM.
For the compound `Cc1cc(C(C)Nc2ccccc2C(=O)O)c2cc(N3C[C@H]4CCCC[C@@H]4C3)n(C)c(=O)c2c1` (single isomer, unassigned) [Example 115], the IC50 was greater than 15 µM.
On the same count and under the same terms, to `Cc1cc(C(C)Nc2ccccc2C(=O)O)c2cc(N3CCN4CC(F)(F)CC4C3)n(C)c(=O)c2c1` (single isomer, unassigned) [Example 121] belongs 0.001 to 0.5 µM; to `Cc1cc(C(C)Nc2ccccc2C(=O)O)c2cc(N3CCN4CC(F)(F)CC4C3)n(C)c(=O)c2c1` (single isomer, unassigned) [Example 122], greater than 15 µM.
With `Cc1cc(C(C)Nc2ccccc2C(=O)O)c2cc(N3CCN4C(=O)CCC4C3)n(C)c(=O)c2c1` (single isomer, unassigned) [Example 123], the IC50 was greater than 15 µM.
Still for that read-out and setting: the value for `Cc1cc(C(C)Nc2ccccc2C(=O)O)c2cc(N3CCN4C(=O)CCC4C3)n(C)c(=O)c2c1` (single isomer, unassigned) [Example 124] was 2 to 15 µM; that for `COc1cccc(C#Cc2cc3c(C(C)Nc4ccccc4C(=O)O)cc(C)cc3c(=O)n2C)c1` (single isomer, unassigned) [Example 125] was greater than 15 µM.
`COc1cccc(C#Cc2cc3c(C(C)Nc4ccccc4C(=O)O)cc(C)cc3c(=O)n2C)c1` (single isomer, unassigned) [Example 126]: the IC50 was 0.001 to 0.5 µM.

The subject of the next assay is SKBR3 cells express WT PI3Ka. Kind of assay: In vitro cell proliferation, SKBR3 cells (CellTiter-Glo). Conditions: Homo sapiens, SK-BR-3, 72 h, inhibition of proliferation. The assay is classed as cell-based. The essentials: (§2)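 T47D (PI3Kα H1047R; RPMI, 10% FBS, insulin 0.2 units/mL) or SKBR3 (WT PI3Kα; McCoys 5a, 10% FBS) cells seeded at 1,500 cells/well on 10-point compound dilutions, grown 72 h at 37 °C. CellTiter-Glo luminescence; inhibition normalised to 0.1% DMSO and 10 uM alpelisib, EC50 from four-parameter fit.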
In general terms: In ATP-based viability assays light output follows the ATP content of the culture.
In general, EC50 refers to the concentration giving half of the maximal effect. On to `Cc1cc(C(C)Nc2ccccc2C(=O)O)c2cc(N3CCN4C(=O)CCC4C3)n(C)c(=O)c2c1` (single isomer, unassigned) [Example 134], for which the EC50 was greater than 15 µM.
On to `Cc1cc(C(C)Nc2ccccc2C(=O)O)c2cc(N3CCN4CCC[C@@H]4C3)n(C)c(=O)c2c1` (single isomer, unassigned) [Example 137], for which the EC50 is greater than 15 µM.
Same read-out and setting: to `Cc1cc(C(C)Nc2ccccc2C(=O)O)c2cc(N3CCN(c4ccc(C)nc4)CC3)n(C)c(=O)c2c1` (single isomer, unassigned) [Example 145] belongs 2 to 15 µM.

Still in this assay, the particulars now being: inhibition of proliferation, 72 hours.
`Cc1cc(C(C)Nc2ccccc2C(=O)O)c2cc(N3CCC4(CCN(CC(F)(F)F)CC4)CC3)n(C)c(=O)c2c1` (single isomer, unassigned) [Example 111]: the EC50 fell in the range of 2 to 15 µM.
Consider `COCCC(=O)N1CCN(c2cc3c(C(C)Nc4ccccc4C(=O)O)cc(C)cc3c(=O)n2C)CC1` (single isomer, unassigned) [Example 112], for which the 50% effective concentration (EC50) was greater than 15 µM.
For `COCCC(=O)N1CCN(c2cc3c(C(C)Nc4ccccc4C(=O)O)cc(C)cc3c(=O)n2C)CC1` (single isomer, unassigned) [Example 113], the EC50 fell in the range of 2 to 15 µM.
In turn, `Cc1cc(C(C)Nc2ccccc2C(=O)O)c2cc(N3C[C@@H]4CCCC[C@H]4C3)n(C)c(=O)c2c1` (single isomer, unassigned) [Example 114] registered an EC50 greater than 15 µM.
Turning to `Cc1cc(C(C)Nc2ccccc2C(=O)O)c2cc(N3C[C@H]4CCCC[C@@H]4C3)n(C)c(=O)c2c1` (single isomer, unassigned) [Example 115], the EC50 was greater than 15 µM.
`Cc1cc(C(C)Nc2ccccc2C(=O)O)c2cc(N3CCN4CC(F)(F)CC4C3)n(C)c(=O)c2c1` (single isomer, unassigned) [Example 121] displayed an EC50 greater than 15 µM.
`Cc1cc(C(C)Nc2ccccc2C(=O)O)c2cc(N3CCN4CC(F)(F)CC4C3)n(C)c(=O)c2c1` (single isomer, unassigned) [Example 122] returned an EC50 greater than 15 µM.
For `Cc1cc(C(C)Nc2ccccc2C(=O)O)c2cc(N3CCN4C(=O)CCC4C3)n(C)c(=O)c2c1` (single isomer, unassigned) [Example 123], the EC50 was greater than 15 µM.
`Cc1cc(C(C)Nc2ccccc2C(=O)O)c2cc(N3CCN4C(=O)CCC4C3)n(C)c(=O)c2c1` (single isomer, unassigned) [Example 124] yielded an EC50 greater than 15 µM.
On to `COc1cccc(C#Cc2cc3c(C(C)Nc4ccccc4C(=O)O)cc(C)cc3c(=O)n2C)c1` (single isomer, unassigned) [Example 125], for which the EC50 was greater than 15 µM.
The same measure, in the same setting: to `COc1cccc(C#Cc2cc3c(C(C)Nc4ccccc4C(=O)O)cc(C)cc3c(=O)n2C)c1` (single isomer, unassigned) [Example 126] belongs greater than 15 µM.

The subject of a further assay is T47D cells expressing mutant PI3Ka (H1047R). Kind of assay: In vitro cell proliferation, T47D cells (CellTiter-Glo). The assay is classed as cell-based. Conditions: Homo sapiens, T47D, 72 h, inhibition of proliferation, read-out: Avg T-47D EC50. The essentials:
as §2
As to `Cc1cc(C(C)Nc2ccccc2C(=O)O)c2cc(N3CCN4C(=O)CCC4C3)n(C)c(=O)c2c1` (single isomer, unassigned) [Example 134], the EC50 lay within 2 to 15 µM.
Regarding `Cc1cc(C(C)Nc2ccccc2C(=O)O)c2cc(N3CCN4CCC[C@@H]4C3)n(C)c(=O)c2c1` (single isomer, unassigned) [Example 137], the EC50 is 0.5 to 2 µM.
On to `Cc1cc(C(C)Nc2ccccc2C(=O)O)c2cc(N3CCN(c4ccc(C)nc4)CC3)n(C)c(=O)c2c1` (single isomer, unassigned) [Example 145], for which the EC50 lay within 0.001 to 0.5 µM.

Still in this assay, the particulars now being: inhibition of proliferation, 72 hours, read-out: Avg T-47D EC50.
Turning to `Cc1cc(C(C)Nc2ccccc2C(=O)O)c2cc(N3CCC4(CCN(CC(F)(F)F)CC4)CC3)n(C)c(=O)c2c1` (single isomer, unassigned) [Example 111], the EC50 was 0.001 to 0.5 µM.
The same measure, in the same setting: to `COCCC(=O)N1CCN(c2cc3c(C(C)Nc4ccccc4C(=O)O)cc(C)cc3c(=O)n2C)CC1` (single isomer, unassigned) [Example 112] belongs 2 to 15 µM; to `COCCC(=O)N1CCN(c2cc3c(C(C)Nc4ccccc4C(=O)O)cc(C)cc3c(=O)n2C)CC1` (single isomer, unassigned) [Example 113], 0.001 to 0.5 µM; to `Cc1cc(C(C)Nc2ccccc2C(=O)O)c2cc(N3C[C@@H]4CCCC[C@H]4C3)n(C)c(=O)c2c1` (single isomer, unassigned) [Example 114], greater than 15 µM.
For `Cc1cc(C(C)Nc2ccccc2C(=O)O)c2cc(N3C[C@H]4CCCC[C@@H]4C3)n(C)c(=O)c2c1` (single isomer, unassigned) [Example 115], the 50% effective concentration (EC50) lay within 0.001 to 0.5 µM.
For the compound `Cc1cc(C(C)Nc2ccccc2C(=O)O)c2cc(N3CCN4CC(F)(F)CC4C3)n(C)c(=O)c2c1` (single isomer, unassigned) [Example 121], the EC50 is 0.5 to 2 µM.
Regarding `Cc1cc(C(C)Nc2ccccc2C(=O)O)c2cc(N3CCN4CC(F)(F)CC4C3)n(C)c(=O)c2c1` (single isomer, unassigned) [Example 122], the EC50 lay within 2 to 15 µM.
`Cc1cc(C(C)Nc2ccccc2C(=O)O)c2cc(N3CCN4C(=O)CCC4C3)n(C)c(=O)c2c1` (single isomer, unassigned) [Example 123]: the EC50 is greater than 15 µM.
The same measure, in the same setting: to `Cc1cc(C(C)Nc2ccccc2C(=O)O)c2cc(N3CCN4C(=O)CCC4C3)n(C)c(=O)c2c1` (single isomer, unassigned) [Example 124] belongs 0.5 to 2 µM.
As for `COc1cccc(C#Cc2cc3c(C(C)Nc4ccccc4C(=O)O)cc(C)cc3c(=O)n2C)c1` (single isomer, unassigned) [Example 125], the EC50 fell in the range of 2 to 15 µM.
Consider `COc1cccc(C#Cc2cc3c(C(C)Nc4ccccc4C(=O)O)cc(C)cc3c(=O)n2C)c1` (single isomer, unassigned) [Example 126], for which the EC50 was 0.001 to 0.5 µM.

The next assay deals with phosphorylation of AKT (pAKT) in SKBR3 cells express WT PI3Ka. Kind of assay: In vitro cell pAKT (Ser473) HTRF, SKBR3 cells. The class given is cell-based. The conditions noted are these: Homo sapiens, SK-BR-3, 6 h, cellular pAKT. The gist of the method:
as §1
For `COCCC(=O)N1CCN(c2cc3c(C(C)Nc4ccccc4C(=O)O)cc(C)cc3c(=O)n2C)CC1` (single isomer, unassigned) [Example 112], the IC50 was greater than 15 µM.
Compound `Cc1cc(C(C)Nc2ccccc2C(=O)O)c2cc(N3CCN4C(=O)CCC4C3)n(C)c(=O)c2c1` (single isomer, unassigned) [Example 134] showed an IC50 greater than 15 µM.
For `Cc1cc(C(C)Nc2ccccc2C(=O)O)c2cc(N3CCN4CCC[C@@H]4C3)n(C)c(=O)c2c1` (single isomer, unassigned) [Example 137], the IC50 is greater than 15 µM.
As to `Cc1cc(C(C)Nc2ccccc2C(=O)O)c2cc(N3CCN(c4ccc(C)nc4)CC3)n(C)c(=O)c2c1` (single isomer, unassigned) [Example 145], the IC50 was in the range of 2 to 15 µM.

Still in this assay, the particulars now being: cellular pAKT, 6 hours.
As to `Cc1cc(C(C)Nc2ccccc2C(=O)O)c2cc(N3CCC4(CCN(CC(F)(F)F)CC4)CC3)n(C)c(=O)c2c1` (single isomer, unassigned) [Example 111], the IC50 lay within 2 to 15 µM.
The same measure, in the same setting: to `COCCC(=O)N1CCN(c2cc3c(C(C)Nc4ccccc4C(=O)O)cc(C)cc3c(=O)n2C)CC1` (single isomer, unassigned) [Example 113] belongs greater than 15 µM.
In the case of `Cc1cc(C(C)Nc2ccccc2C(=O)O)c2cc(N3C[C@@H]4CCCC[C@H]4C3)n(C)c(=O)c2c1` (single isomer, unassigned) [Example 114], the IC50 was greater than 15 µM.
The same measure, in the same setting: to `Cc1cc(C(C)Nc2ccccc2C(=O)O)c2cc(N3C[C@H]4CCCC[C@@H]4C3)n(C)c(=O)c2c1` (single isomer, unassigned) [Example 115] belongs greater than 15 µM; to `Cc1cc(C(C)Nc2ccccc2C(=O)O)c2cc(N3CCN4CC(F)(F)CC4C3)n(C)c(=O)c2c1` (single isomer, unassigned) [Example 121], greater than 15 µM.
The same measure, in the same setting: to `Cc1cc(C(C)Nc2ccccc2C(=O)O)c2cc(N3CCN4CC(F)(F)CC4C3)n(C)c(=O)c2c1` (single isomer, unassigned) [Example 122] belongs greater than 15 µM; to `Cc1cc(C(C)Nc2ccccc2C(=O)O)c2cc(N3CCN4C(=O)CCC4C3)n(C)c(=O)c2c1` (single isomer, unassigned) [Example 123], greater than 15 µM; to `Cc1cc(C(C)Nc2ccccc2C(=O)O)c2cc(N3CCN4C(=O)CCC4C3)n(C)c(=O)c2c1` (single isomer, unassigned) [Example 124], greater than 15 µM.
Still for that read-out and setting: the value for `COc1cccc(C#Cc2cc3c(C(C)Nc4ccccc4C(=O)O)cc(C)cc3c(=O)n2C)c1` (single isomer, unassigned) [Example 125] was greater than 15 µM; that for `COc1cccc(C#Cc2cc3c(C(C)Nc4ccccc4C(=O)O)cc(C)cc3c(=O)n2C)c1` (single isomer, unassigned) [Example 126] was greater than 15 µM.
